Series [1] deals with PCP-treated rats. Kind of series: Social interaction (sniffing index, SI) assay in scPCP model. In kind it is in vivo, rat. On the procedure: (§1) Differences in discrimination index ((time spent exploring novel−time spent exploring familiar)/total exploration time) are depicted. scPCP rats treated with risperidone (Risp) served as a positive control. […] Rats treated with cariprazine (Cari) served as a positive control.
The sniffing component of the SI assay was carried out as described in (J. C. Neil, S. Barnes, S. Cook, B. Grayson, N. F. Iris, S. L. McLean, S. Snigdha, L. Rajagopa, and M. K. Harte, “Animal models of cognitive dysfunction and negative symptoms of schizophrenia: focus on NMDA receptor antagonism”, Pharmacol. Ther., 2010, 128, 419-423) in groups of 12 rats.

Series [2] deals with PCP-treated rats. Kind of series: Novel Object Recognition (NOR) assay in scPCP model. Particulars: for effect on Discrimination Index (DI): 3 hr post-dose. It is filed as in vivo, rat. As for the experimental part:
as §1
Efficacy of LB-102, LB-103, and LB-104 at different doses was evaluated in rats in a Novel Object Recognition (NOR) assay, a well-established model recapitulating cognitive and negative aspects of the PANSS scale of schizophrenia. In this assay, animals were treated for several weeks with a low dose of phencyclidine (PCP) to impair the ability of the rat to discern between novel and familiar objects. Typically rats, like humans, would spend more time exploring a novel object than a familiar one.
In this NOR study the efficacies of LB-102, LB-103, and LB-104 were compared to known antipsychotic risperidone for its ability to restore normal differentiation between novel and familiar object exploration in PCP-treated rats. Cognitive measurements were taken at 3 hr post-dose for LB-102, LB-103, and LB-104 and 30 min for risperidone. The endpoint of this study was the Discrimination Index (DI), a normalized ratio of time spent exploring a novel object compared to a familiar one.

A further series has as its target 5-HT2a receptor (Homo sapiens, UniProt P28223). Particulars: compared to other antipsychotics; cited from earlier work.
In another series the test system is muscarinic receptors. To be noted: cited from earlier work.
Another series deals with sigma sites. To be noted: cited from earlier work.
The target in the next series is D1 receptor subtype (Homo sapiens, UniProt P21728). Particulars: cited from earlier work.
In series [3] the test system is alpha-adrenergic receptor subtypes. To be noted: cited from earlier work.
In series [4] the test system is histamine receptor subtypes. To be noted: cited from earlier work.
The test system of series [5] is serotonin receptor subtypes. Particulars: cited from earlier work.
The next series concerns the target D5 receptor subtype (Homo sapiens, UniProt P21918). Particulars: cited from earlier work.
The conditions of series [6]: 2014 study, rank among 30 psychiatric drugs; cited from earlier work.
A further series has as its target T1, D4 receptor subtype (Homo sapiens, UniProt P21917).
T1 sequence (P21917 1-419): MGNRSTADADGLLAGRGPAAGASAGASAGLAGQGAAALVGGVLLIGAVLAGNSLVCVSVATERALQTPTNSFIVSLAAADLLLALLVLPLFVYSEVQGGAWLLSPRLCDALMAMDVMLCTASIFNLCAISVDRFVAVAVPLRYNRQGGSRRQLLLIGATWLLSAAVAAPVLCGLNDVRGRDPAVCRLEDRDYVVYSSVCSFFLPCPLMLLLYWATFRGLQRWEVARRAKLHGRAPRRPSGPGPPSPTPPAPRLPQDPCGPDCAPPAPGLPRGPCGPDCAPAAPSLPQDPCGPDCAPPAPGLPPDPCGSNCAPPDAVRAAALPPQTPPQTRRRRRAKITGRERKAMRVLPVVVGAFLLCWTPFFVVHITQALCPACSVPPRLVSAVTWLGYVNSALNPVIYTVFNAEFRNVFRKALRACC
To be noted: cited from earlier work.

Sequence of D5 receptor subtype (P21918 whole entry): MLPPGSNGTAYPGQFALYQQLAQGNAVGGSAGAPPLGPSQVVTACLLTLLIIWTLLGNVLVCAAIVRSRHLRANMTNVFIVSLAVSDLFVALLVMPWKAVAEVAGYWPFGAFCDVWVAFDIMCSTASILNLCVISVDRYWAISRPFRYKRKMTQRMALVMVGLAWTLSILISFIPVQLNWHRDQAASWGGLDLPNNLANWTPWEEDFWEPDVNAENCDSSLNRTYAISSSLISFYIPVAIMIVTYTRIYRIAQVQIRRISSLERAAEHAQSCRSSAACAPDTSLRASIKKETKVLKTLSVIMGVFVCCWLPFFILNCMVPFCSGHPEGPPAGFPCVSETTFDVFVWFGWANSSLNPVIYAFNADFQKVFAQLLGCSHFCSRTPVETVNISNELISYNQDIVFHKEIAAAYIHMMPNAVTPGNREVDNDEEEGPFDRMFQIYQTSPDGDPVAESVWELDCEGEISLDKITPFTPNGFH
Sequence of D1 receptor subtype (P21728 whole entry): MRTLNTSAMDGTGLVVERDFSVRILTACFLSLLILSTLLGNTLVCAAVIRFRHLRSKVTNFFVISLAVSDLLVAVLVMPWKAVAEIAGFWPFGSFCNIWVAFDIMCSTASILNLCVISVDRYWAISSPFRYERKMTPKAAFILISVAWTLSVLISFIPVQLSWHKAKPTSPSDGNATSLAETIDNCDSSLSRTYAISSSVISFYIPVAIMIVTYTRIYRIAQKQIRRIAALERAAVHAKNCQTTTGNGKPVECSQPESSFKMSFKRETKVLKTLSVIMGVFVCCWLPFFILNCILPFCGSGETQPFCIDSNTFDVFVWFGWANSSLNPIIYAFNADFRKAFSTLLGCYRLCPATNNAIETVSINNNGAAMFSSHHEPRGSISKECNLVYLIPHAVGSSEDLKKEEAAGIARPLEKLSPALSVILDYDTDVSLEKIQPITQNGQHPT
Sequence of 5-HT2a receptor (P28223 whole entry): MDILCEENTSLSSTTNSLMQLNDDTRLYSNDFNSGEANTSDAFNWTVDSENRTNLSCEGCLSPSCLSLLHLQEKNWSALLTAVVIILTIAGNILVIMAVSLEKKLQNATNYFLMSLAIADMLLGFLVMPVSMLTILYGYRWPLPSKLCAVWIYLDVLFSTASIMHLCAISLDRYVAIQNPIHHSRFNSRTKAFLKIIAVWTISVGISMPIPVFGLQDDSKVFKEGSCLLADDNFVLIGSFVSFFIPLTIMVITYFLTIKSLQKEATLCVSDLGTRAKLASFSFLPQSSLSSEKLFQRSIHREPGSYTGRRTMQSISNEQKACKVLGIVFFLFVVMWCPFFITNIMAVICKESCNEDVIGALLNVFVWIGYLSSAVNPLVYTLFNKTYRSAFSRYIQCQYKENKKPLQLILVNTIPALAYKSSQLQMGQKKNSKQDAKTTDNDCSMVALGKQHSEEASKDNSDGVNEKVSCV

On to `CCN1CCCC1CNC(=O)c1cc(S(=O)(=O)CC)c(NC)cc1OC` (racemic) [LB-102], for which the “effect on sniffing index (social interaction)” value with PCP-treated rats [1] (5 mg (printed)) and in the series with PCP-treated rats [1] (45 mg/kg) was “significant effect” in each case. Also, the “NOR result compared to LB-104” value in the series on PCP-treated rats [2] is reported as “comparable results”. Besides, the “effect on Discrimination Index (DI)” value with PCP-treated rats [2] (15 mg/kg) and in the series with PCP-treated rats [2] (45 mg/kg) was “significant improvement” each time.

In the case of `CCN1CCCC1CNC(=O)c1cc(S(=O)(=O)CC)c(N)cc1OC` (stereo not drawn) [Amisulpride, 4-amino-N-(((1-ethyl-2-pyrrolidinyl)methyl)-5-(ethylsulfonyl))-2-methoxybenzamide], at 5-HT2a receptor, the “activity at the 5-HT2a receptor” value is recorded as “not noted to have any activity”. Moreover, the affinity entry is recorded as “low affinity” in the series with muscarinic receptors; “low affinity” in the series with sigma sites; “without any affinity” on D1 receptor subtype; “low affinity” in [3]; “low affinity” in series [4]; “low affinity” in series [5]. Moreover, the affinity result at D5 receptor subtype and on D4 receptor subtype was “without any affinity” throughout. The “passive diffusion across a PAMPA membrane (Pe)” value in [6] is recorded as “lowest of 30 psychiatric drugs tested”.

For the molecule `CCN1CCC[C@@H]1CNC(=O)c1cc(S(=O)(=O)CC)c(NC)cc1OC` [LB-104], the “effect on sniffing index (social interaction)” value in the series on PCP-treated rats [1] (45 mg/kg) is reported as “significant effect”. Besides, the “effect on Discrimination Index (DI)” value in the series with PCP-treated rats [2] (15 mg/kg) and with PCP-treated rats [2] (45 mg/kg) was “significant improvement” each time.
